Reference: patent publication US20230255954A1, “INTERLEUKIN 33 (IL-33) INHIBITION FOR TREATMENT OF CANCER, FIBROSIS AND INFLAMMATION” (The General Hospital Corporation, priority 2020, published 2023)

How the values were obtained:
[1] = test system: mouse Il33 gene promoter (IL-33 promoter-luci reporter); assay: IL-33 promoter luciferase screen of FDA-approved Drug Library; format: cell-based; settings: 10 μM, 24 hours; IL-33 promoter-luci vs control-luci stable Pam212 cells; 1056 molecules tested
Procedure: Pam212 cells were grown at 37° C. in DMEM (Thermo Fisher Scientific, Waltham, Mass., catalog no. 11995065) supplemented with 10% fetal bovine serum (Thermo Fisher Scientific, catalog no. 26140079), 1× penicillin-streptomycin-glutamine (Thermo Fisher Scientific, catalog no. 10378016), 1×MEM non-essential amino acids solution (Thermo Fisher Scientific, catalog no. 11140050), 1×HEPES (Thermo Fisher Scientific, catalog no. 15630080) and 0.1% 2-Mercaptoethanol (Thermo Fisher Scientific, catalog no. 21985023). PyMT cell lines (derived from a primary breast tumor of MMTV-PyMrg mouse on a C57BL/6 background) were grown at 37° C. in RPMI Medium 1640 (Thermo Fisher Scientific, catalog no. 11875093) supplemented with 10% fetal bovine serum, 1× penicillin-streptomycin-glutamine and 0.1% 2-Mercaptoethanol. IL-33 promoter-luci vector (GeneCopoeia, Rockville, Md., catalog no. MPRM3494-PG02) or Control-luci vector (deletion form of IL-33 promoter region from IL-33 promoter-luci vector) or Poly (I:C) (Invivogen, San Diego, Calif., catalog no. tlrl-pic) in Pam212 cells were performed using Lipofectamine 2000 (Thermo Fisher Scientific, catalog no. 11668019) according to the manufacturer's instructions.
After transfection of plasmids in Pam212 cells, cells were incubated with 3 μg/ml of puromycin (Invivogen, San Diego, Calif., catalog no. ant-pr-1) for positive transfected cell selection. After following 2 days, medium was changed new puromycin contained medium for further selection. After following 2 days, cells were moved to new plate with puromycin contained medium. Puromycin selection was repeated for five times more.
1000 stable cells were seed to 384 wells (Corning, Glendale, Ariz., catalog no. 3570) and each of plate was incubated 24 hours. Following day, 10 μM of FDA-approved Drug Library compounds (Selleckchem, Houston, Tex., catalog no. L1300) were added to each well. After 24 hours, 5 μL of luciferase buffer from Pierce Gaussia luciferase glow assay kit (Thermo Fisher Scientific, Waltham, Mass., catalog no. 16160) were added each well and incubated for 5 min. Each plate was read and measured with luminescence by EnVision 2014 plate reader (Perkin Elmer, Waltham, Mass., catalog no. 2014 EnVision).
To make small molecule screening platform, we generated both IL-33 promoter-luci and control-luci over-expressed stable epithelial cell line (Pam212) by multiple puromycin selection strategy (FIG. 10A). To find molecules that can inhibit IL-33 expression, we tested 1056 FDA-approved small molecules against our reporter cell line. […] To find bona fide inhibitors of IL-33, we checked RNA level of Il33 by qPCR in cells treated with inducer of IL-33 expression, Poly (I:C). After cells were treated by Poly (I:C), RNA level of Il33 was increased compared to carrier group. However, Il33 RNA level was decreased by pitavastatin and tropisetron in Poly I:C-treated cells (FIGS. 10C and D). […] Finally, endogenous IL-33 protein level was decreased after treatment with pitavastatin in a dose-dependent manner (FIG. 10F). Therefore, pitavastatin is a small inhibitor molecule of IL-33.

[2] = test system: DNFB treated mice back skin; assay: DNFB chronic skin inflammation model with pitavastatin; format: in vivo, mouse
Procedure: Four- to six-week old male and female mice were shaved on their abdomen and sensitized to 50 μL 0.5% 1-Fluoro-2,4-dinitrobenzene (DNFB, Millipore Sigma, St. Louis, Mo., catalog no. 42085) dissolved in acetone plus olive oil at 3:1 ratio (refer to as acetone). Two days after first sensitization, mice were re-sensitized to 50 μL 0.25% DNFB on their abdomen. After 5 days, mice were challenged with 100 μL 0.25% DNFB on their back skin, which was repeated three times per week for 22 days. Skin rash was monitored over the duration of the study.
Mice were treated with 0.5 mM pitavastatin in 200 μL 70% ethanol or 200 μL 70% ethanol alone to their back skin twice a week. Pitavastatin/70% ethanol treatments were given in DNFB doses.
Tissue samples were collected and fixed in 4% paraformaldehyde (Millipore Sigma, catalog no. P6148) overnight at 4° C. Next, tissues were dehydrated in ethanol, processed and embedded in paraffin. 5 μm sections paraffin-embedded tissues were placed on slides, deparaffinized and stained with H&E or toluidine blue (for mast cell detection). For immunohistochemistry, antigen retrieval was performed in 500 μL of antigen unmasking solution (VECTOR Laboratories, Burlingame, Calif., catalog no. H3300) diluted in 50 mL water using Cuisinart pressure cooker for 20 min at high pressure. Slides were washed three times for three minutes each in 1×TBS with 0.025% Triton X-100. Sections were blocked with 1% bovine serum albumin (Thermo Fisher Scientific, catalog no. BP1600) and 5% goat serum (Millipore Sigma, catalog no. G9023) for 1 hour. Slides were stained overnight at 4° C. with a primary antibody diluted in TBS containing 1% BSA (Appendix Table S2). The following day, slides were washed as above and incubated in 100 μL biotinylated secondary antibody (VECTOR Laboratories, catalog no. PK-6200) for 30 min. After washing, slides were incubated with 100 μL mixture of reagent A and B from VECTASTAIN Elite ABC universal kit Peroxidase (VECTOR Laboratories, catalog no. PK-6200) for 30 min. After washing, slides were incubated with 100 μL ImmPACT DAB chromogen stating (VECTOR Laboratories, catalog no. SK-4105) for a few minutes. Finally, slides dehydrated in ethanol and xylene and mounted with a coverslip using 3 drops of mounting media.
Next, we also investigated effect of pitavastatin in vivo chronic inflammation model. […] Next, we studied the effect of pitavastatin treatment on chronic inflammation in mice. […] Furthermore, both IL-33 and nuclear IRF3 were reduced in same epithelial region of DNFB plus pitavastatin versus DNFB plus carrier treated mice (FIGS. 12D and E). Thus, pitavastatin is a small molecule IL-33 inhibitor that suppresses skin inflammation.

[3] = DNFB plus pitavastatin versus DNFB plus carrier
[4] = topical DNFB plus pitavastatin vs DNFB plus carrier

IL-33/Control luminescence ratio (inhibitory effect against IL-33 reporter) [1]: small molecule candidates
Structure (SMILES): O=C(O)C[C@H](O)C[C@H](O)/C=C/c1c(C2CC2)nc2ccccc2c1-c1ccc(F)cc1 [pitavastatin]
chronic inflammation in back skin ([2]; 0.5 mM pitavastatin in 200 μL 70% ethanol on back skin twice a week, compared to only DNFB treated mice): mild chronic inflammation | IL-33 in epithelial region (staining) [2, 3]: reduced | nuclear IRF3 in epithelial region (staining) [2, 3]: reduced | IL-33 expression, RNA level ([2]; DNFB treated mice skin): decreased | IL-33 expression, protein level ([2]; DNFB treated mice skin): decreased | p-IRF3 ([2]; compared to only DNFB treated group): decreased | epidermal thickness [2, 4]: reduced | mast cell infiltration [2, 4]: reduced
